# According to patent US12098217B2, “Fusion peptides as antimicrobial agents” (CENTRE NATIONAL DE LA RECHERCHE SCIENTIFIQUE, priority 2019, dated 2024):
# Where two headings read alike, the source gives them in different places. Square brackets hold non-standard residues; d marks the D form. Peptide text beside a SMILES is read from it. * marks the point of attachment. 5FAM = O=C1OC2(c3ccc(O)cc3Oc3cc(O)ccc32)c2ccc(C(=O)*)cc21; Phe(3,4-Cl2) = N[C@@H](Cc1ccc(Cl)c(Cl)c1)C(=O)O; Cha = N[C@@H](CC1CCCCC1)C(=O)O
# Experiments:
# [1] = target: T1, E. coli SC (^EcSC, beta ring, DnaN) (Escherichia coli, UniProt P0A988); assay: ITC, peptide interaction with E. coli sliding clamp; format: binding
# T1 construct: inferred from the pET15b vector and the Ni-NTA/imidazole purification; made in house; host or cells: E. coli BL21 (DE3) pLys
# T1 sequence (P0A988 whole entry): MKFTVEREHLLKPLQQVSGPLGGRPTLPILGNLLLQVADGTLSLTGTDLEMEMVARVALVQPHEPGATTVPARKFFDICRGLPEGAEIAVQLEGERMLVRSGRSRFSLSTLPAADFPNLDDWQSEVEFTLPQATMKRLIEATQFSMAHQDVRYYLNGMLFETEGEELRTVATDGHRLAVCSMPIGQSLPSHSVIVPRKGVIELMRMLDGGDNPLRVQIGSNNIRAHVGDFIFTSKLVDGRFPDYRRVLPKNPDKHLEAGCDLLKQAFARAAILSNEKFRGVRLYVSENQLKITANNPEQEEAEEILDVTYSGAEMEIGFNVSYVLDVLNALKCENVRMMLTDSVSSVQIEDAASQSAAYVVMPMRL
# Description: The DnaN protein was expressed from plasmids pET15b, containing the dnaN gene from E. coli, transfected in BL21 (DE3) pLys E. coli strain. Cells were grown in LB at 37° C. to OD 0.5, then induced by IPTG (0.1 mM) at 28° C. overnight. DnaN protein was first enriched on a Ni-NTA column, eluted with an imidazole step (300 mM) and further purified on a Source Q column in buffer containing 20 mM Tris HCl pH 7.5, 0.5 mM EDTA and 10% glycerol, using a gradient from 0 to 0.5 M NaCl. After a final ultracentrifugation (45K, 1 h, 20° C.), soluble proteins were concentrated on a Centricon 30K (Millipore) in the same buffer and stored at 4° C. in 2 M ammonium sulfate.
# ITC experiments were performed on a iTC200 (Microcal Malvern Panalytical) or PEAQ-ITC instrument (Microcal Malvern Panalytical). The E. coli SC were washed extensively with ITC buffer (R1 buffer: 10 mM Hepes pH 7.4, 0.15 M NaCl, 3 mM EDTA) on Centrikon 10K at 4° C. before ITC experiments. […] Similarly, E. coli 70S ribosome particles were also washed extensively with ITC 70S buffer (50 mM Tris HCl pH7.5, 30 mM KCl, 70 mM NH4Cl, 7 mM MgCl2, 1 mM DTT, 5% glycerol) on Centrikon 100K at 4° C. before ITC experiments. […] […] Data were corrected from control experiments in which peptides were injected in ITC buffer solution. Each titration was performed at least twice. Analyses of experimental data were performed with AFFINImeter software (https://www.affinimeter.com; S4S, Santiago de Compostela, Spain).
# [2] = tested on: E. coli 70S ribosome (^Ec70S); assay: ITC, peptide interaction with E. coli 70S ribosome; format: binding
# Description: E. coli MRE600 cells were grown at 37° C. in LB medium until OD^600=1. Cells were centrifuged at 4° C., and pellets were resuspended in buffer A (20 mM Tris HCl pH 7.5; 200 mM NH4Cl; 20 mM MgCl2; 0.1 mM EDTA; 6 mM β-mercaptoethanol) and lysed using a French press at 1.6 kbar. The crude lysate was centrifuged (18 200 rpm) for 30 mn at 4° C. The supernatant was further centrifuged (47000 rpm) at 4° C. for 4 hours and the pellet resuspended in 12.5 ml of buffer A. This solution was laid on a 30% sucrose cushion and centrifuged (34 000 rpm) for 19 hours at 4° C. The ribosome pellet was resuspended in 12.5 ml buffer B (20 mM Tris HCl pH 7.5; 50 mM NH4Cl; 10 mM MgCl2; 0.1 mM EDTA; 6 mM β-mercaptoethanol) and centrifuged again (18 200 rpm) for 1 hour at 4° C. The supernatant was concentrated on Centrikon 100K (Millipore) and washed extensively with ITC 70S buffer. Ribosome concentration was determined by UV absorption at 260 nm. Samples were snap frozen in liquid nitrogen and kept at −80° C.
# ITC experiments were performed on a iTC200 (Microcal Malvern Panalytical) or PEAQ-ITC instrument (Microcal Malvern Panalytical). The E. coli SC were washed extensively with ITC buffer (R1 buffer: 10 mM Hepes pH 7.4, 0.15 M NaCl, 3 mM EDTA) on Centrikon 10K at 4° C. before ITC experiments. […] Similarly, E. coli 70S ribosome particles were also washed extensively with ITC 70S buffer (50 mM Tris HCl pH7.5, 30 mM KCl, 70 mM NH4Cl, 7 mM MgCl2, 1 mM DTT, 5% glycerol) on Centrikon 100K at 4° C. before ITC experiments. Peptides (100 to 400 μM) were titrated at 30° C. (303.15 K) in sequential injections (usually 2 μl each) into a SC (20 or 30 μM) or 70S (10 to 15 μM) solution. Data were corrected from control experiments in which peptides were injected in ITC buffer solution. Each titration was performed at least twice. Analyses of experimental data were performed with AFFINImeter software (https://www.affinimeter.com; S4S, Santiago de Compostela, Spain).
# The lack of interaction with the ribosome of E. coli has been measured by ITC at 30° C.:
# The interactions of these peptides with the E. coli SC (beta ring) and the ribosome were measured by ITC at […]: […]
# [3] = tested on: E. coli ATCC 25922 (DSM 1103) strain; format: cell-based; conditions: for MIC: ATCC 25922, 36 h
# Description: (§1) E. coli strains were cultivated on either agar or liquid 1× Mueller Hinton broth unless specified. MIC assays were performed in duplicate in 96-well microtiter plates on the basis of the protocol recommended by the Clinical and Laboratory Standards Institute. Briefly, a mix of 5-6 fresh (less than 36 hours) colonies grown on MH agar plates were inoculated in 3 ml of MH broth and incubated for about 16 h at 37° C. under agitation. 30 μl of this saturated culture were inoculated in 3 ml of fresh medium and allowed to grow until OD600 nm of about 0.6-0.8. Dilution to an OD600 nm of 0.002 was made in MH broth. Within a time laps not exceeding 30 min, 50 μl of this cell suspension was added to 50 μl of MH broth (containing or not the peptide/antibiotic diluted in MH broth) in wells of a 96-well round bottom microwell plate (Greiner; final cell density about 2 to 5×10^5 cfu/ml). Plates were incubated at 37° C. for 18-24 h and final turbidity of each well was measured at 620 nm using a Multiskan FC microplate reader (Thermo Scientific). MIC was defined as the minimal antibiotic concentration that result in no increase of turbidity at that time. Each MIC determination was performed in duplicate and at least in two independent experiments. Plating of 75 μl of the content of the wells of interest on LB Agar plates was used to determine the MBC that is defined by a decrease of at least 99.9% of cell viability as compared to the number of viable cells in the inoculum (about 2 to 5×10^4 cfu).
# The antimicrobial activities of these peptides have been tested against the E. coli ATCC 25922 (DSM 1103) strain in 1× Mueller-Hinton broth as mentioned above.
# The antimicrobial activities of these peptides and controls have been tested against the E. coli ATCC 25922 (DSM 1103) strain in 1× Mueller-Hinton broth.
# [4] = tested on: E. coli D22 strain; assay: microbe, parasite or virus in culture; format: cell-based; conditions: D22 strain, 36 h
# Excerpt: E. coli strain D22 (F-, IpxC101, proA23, lac-28, tsx-81, trp-30, his-51, tufA1, rpsL173(strR), ampCp-1 was purchased at E. coli Genetic Stock Center (Yale University) and used in the determination of MIC and in the peptide penetration assays. E. coli ATCC23724 cells were used to infect D. melanogaster flies. 70S ribosomes were purified from the E. coli MRE600 strain (Accession AY140951) and BL21 (DE3) pLys strain was used for production of the DnaN protein.
# as §1
# [5] = tested on: E. coli; conditions: cited from earlier work
# [6] = ITC 25° C., E. coli SC (beta ring)
# [7] = ITC 30° C., Table 2A, ^EcSC, Ni = no specific interaction
# [8] = ITC 30° C., Table 2B, ^Ec70S, Ni = no specific interaction, FITC peptides (*) values not well defined
Compound,"ΔG [1, 6] [kcal/mol]","ΔH [1, 6] [kcal/mol]","interaction with the E. coli ribosome (70S), in words ([2]; ITC 25° C.)",MIC [3] [µM],"factor of improvement of antimicrobial activity versus CA3-30 ([3]; E. coli ATCC 25922, MIC)","Kd ([2]; ITC, 30° C., E. coli ribosome, FITC-Onc112 series) [nM]","interaction with ^EcSC, in words ([1]; ITC 30° C.)","ΔH (kcal/mole) ([1]; ITC 30° C. (303.15 K), Table 2A, ^EcSC, Ni = no specific interaction)","Kd (nM) [1, 7]","ΔG (kcal/mole) [1, 7]","−TΔS (kcal/mole) [1, 7]","Kd ([2]; ITC 30° C., Table 2B, ^Ec70S, Ni = no specific interaction) [nM]","ΔG [2, 8] [kcal/mol]","ΔH [2, 8] [kcal/mol]","−TΔS [2, 8] [kcal/mol]",MBC [4] [µg/mL],MIC of previous reports [5] [µM],MIC of previous reports ([5]; other E. coli strains and/or culture media) [µg/mL]
CC[C@H](C)[C@H](NC(=O)[C@@H](CCCNC(=N)N)NC(=O)[C@H](CCCNC(=N)N)NC(=O)[C@@H]1CCCN1C(=O)[C@@H]1CCCN1C(=O)[C@H](CCCNC(=N)N)NC(=O)[C@@H]1CCCN1C(=O)[C@H](CCCNC(=N)N)NC(=O)[C@@H]1CCCN1C(=O)[C@H](CC(C)C)NC(=O)[C@H](Cc1ccc(O)cc1)NC(=O)[C@@H]1CCCN1C(=O)[C@@H]1CCCN1C(=O)[C@H](CCCCN)NC(=O)[C@H](CC(=O)O)NC(=O)[C@@H](NC(=O)[C@H](CCCNC(=N)N)NC(=O)[C@@H]1CCCN1C(=O)CNC(=O)[C@H](Cc1ccccc1)NC(=O)[C@H](CC(C)C)NC(=O)[C@H](CC(=O)O)NC(=O)[C@H](CC1CCCCC1)NC(=O)[C@H](CCC(N)=O)NC(C)=O)C(C)C)C(=O)N[C@@H](Cc1ccc(O)cc1)C(=O)N[C@@H](CC(N)=O)C(=O)N[C@H](CCCNC(=N)N)C(N)=O [CM1-76] (Ac-Q[Cha]DLFGPRVDKPPYLPRPRPPR[dR]IYN[dR]-NH2),-9.0,-10.7,no interaction,8 to 16,2,–,–,–,–,–,–,–,–,–,–,–,–,–
"CC[C@H](C)[C@H](NC(=O)[C@@H](CCCNC(=N)N)NC(=O)[C@H](CCCNC(=N)N)NC(=O)[C@@H]1CCCN1C(=O)[C@@H]1CCCN1C(=O)[C@H](CCCNC(=N)N)NC(=O)[C@@H]1CCCN1C(=O)[C@H](CCCNC(=N)N)NC(=O)[C@@H]1CCCN1C(=O)[C@H](CC(C)C)NC(=O)[C@H](Cc1ccc(O)cc1)NC(=O)[C@@H]1CCCN1C(=O)[C@@H]1CCCN1C(=O)[C@H](CCCCN)NC(=O)[C@H](CC(=O)O)NC(=O)[C@@H](NC(=O)[C@H](CCCCN)NC(=O)c1ccc2c(c1)C(=O)OC21c2ccc(O)cc2Oc2cc(O)ccc21)C(C)C)C(=O)N[C@@H](Cc1ccc(O)cc1)C(=O)N[C@@H](CC(N)=O)C(=O)N[C@H](CCCNC(=N)N)C(=O)NCC(=O)N1CCC[C@H]1C(=O)N[C@@H](CCCNC(=N)N)C(=O)N[C@@H](CCC(N)=O)C(=O)N[C@@H](CC1CCCCC1)C(=O)N[C@@H](CC(=O)O)C(=O)N[C@@H](CC(C)C)C(=O)N[C@@H](Cc1ccc(Cl)c(Cl)c1)C(=O)O [CM1-94] (5FAM-KVDKPPYLPRPRPPR[dR]IYN[dR]GPRQ[Cha]DL[Phe(3,4-Cl2)]-OH; N-terminus assumed)",–,–,–,4 to 8,–,> 10000,–,–,–,–,–,–,–,–,–,–,–,–
"CC[C@H](C)[C@H](NC(=O)[C@@H]1CCCN1C(=O)[C@H](CCCNC(=N)N)NC(=O)[C@@H]1CCCN1C(=O)[C@@H]1CCCN1C(=O)[C@@H](NC(=O)[C@@H]1CCCN1C(=O)[C@H](CCCNC(=N)N)NC(=O)[C@@H]1CCCN1C(=O)[C@H](CC(C)C)NC(=O)[C@H](Cc1ccc(O)cc1)NC(=O)[C@H](CO)NC(=O)CNC(=O)[C@H](CCCCN)NC(=O)[C@H](CC(=O)O)NC(=O)[C@@H](N)C(C)C)[C@@H](C)O)C(=O)N[C@@H](Cc1ccc(O)cc1)C(=O)N[C@@H](CC(N)=O)C(=O)N[C@@H](CCCNC(=N)N)C(=O)N[C@@H](CC(N)=O)C(N)=O [Py, reference compound] (H-VDKGSYLPRPTPPRPIYNRN-NH2)",–,–,–,–,–,–,do not interact,Ni,Ni,Ni,Ni,15.5,-10.9,-19.2,8.23,8,3.69 to 7.56,9 to 18
